Reference: patent US7563903B2, “Acylaminothiazole derivatives, their preparation and their therapeutic use” (Sanofi-Aventis, priority 2003, dated 2009)

SMILES | melting point [°C]
CCC[C@H](NC(=O)[C@@H](O)C(C)(C)C)C(=O)Nc1ncc(-c2ccc(OC)cc2COC(C)C)s1 [compound 44, (2S)-2-{[(2S)-2-hydroxy-3,3-dimethylbutanoyl]amino}-N-{5-[2-(isopropoxymethyl)-4-methoxyphenyl]-1,3-thiazol-2-yl}pentanamide] | 79
CCC[C@H](NC(=O)[C@@H](O)C(C)C)C(=O)Nc1ncc(-c2ccc(OC)cc2COc2ccccc2)s1 [compound 49, (2S)-2-{[(2S)-2-hydroxy-3-methylbutanoyl]amino}-N-{5-[4-methoxy-2-(phenoxymethyl)phenyl]-1,3-thiazol-2-yl}pentanamide] | 159.5
CCC[C@H](NC(=O)[C@@H](O)CC(C)C)C(=O)Nc1ncc(-c2ccccc2COC2CCCCC2)s1 [compound 51, (2S)—N-((1S)-1-{[(5-{2-[(cyclohexyloxy)methyl]phenyl}-1,3-thiazol-2-yl)amino]carbonyl}butyl)-2-hydroxy-4-methylpentanamide] | 158
CCC[C@H](NC(=O)[C@@H](O)C(C)(C)C)C(=O)Nc1ncc(-c2ccc(OCC)cc2COc2ccccc2)s1 [compound 52, (2S)—N-{5-[4-ethoxy-2-(phenoxymethyl)phenyl]-1,3-thiazol-2-yl}-2-{[(2S)-2-hydroxy-3,3-dimethylbutanoyl]amino}pentanamide] | 81
CCC[C@H](NC(=O)[C@@H](O)C(C)C)C(=O)Nc1ncc(-c2ccc(OCC)cc2COc2ccccc2)s1 [compound 53, (2S)—N-{5-[4-ethoxy-2-(phenoxymethyl)phenyl]-1,3-thiazol-2-yl}-2-{[(2S)-2-hydroxy-3-methylbutanoyl]amino}pentanamide] | 107.8
CCC[C@H](NC(=O)[C@@H](O)C(C)C)C(=O)Nc1ncc(-c2cc(F)ccc2COc2ccccc2)s1 [compound 56, (2S)—N-{5-[5-fluoro-2-(phenoxymethyl)phenyl]-1,3-thiazol-2-yl}-2-{[(2S)-2-hydroxy-3-methylbutanoyl]amino}pentanamide] | 61.4
CCC[C@H](NC(=O)[C@@H](O)C(C)(C)C)C(=O)Nc1ncc(-c2ccccc2COC2CCCCC2)s1 [compound 57, (2S)—N-(5-{2-[(cyclohexyloxy)methyl]phenyl}-1,3-thiazol-2-yl)-2-{[(2S)-2-hydroxy-3,3-dimethylbutanoyl]amino}pentanamide] | 88
C[C@H](NC(=O)[C@@H](O)C(C)(C)C)C(=O)Nc1ncc(-c2ccccc2COc2ccccc2)s1 [compound 58, (2S)-2-hydroxy-3,3-dimethyl-N-[(1S)-1-methyl-2-oxo-2-({5-[2-(phenoxymethyl)phenyl]-1,3-thiazol-2-yl}amino)ethyl]butanamide] | 118.6
CCC[C@H](NC(=O)[C@@H](O)C(C)C)C(=O)Nc1ncc(-c2cc(C)ccc2COc2ccccc2)s1 [compound 60, (2S)-2-{[(2S)-2-hydroxy-3-methylbutanoyl]amino}-N-{5-[5-methyl-2-(phenoxymethyl)phenyl]-1,3-thiazol-2-yl}pentanamide] | 125.5
CCC[C@H](NC(=O)[C@@H](O)C(C)C)C(=O)Nc1ncc(-c2ccccc2COc2cccc(F)c2)s1 [compound 63, (2S)—N-(5-{2-[(3-fluorophenoxy)methyl]phenyl}-1,3-thiazol-2-yl)-2-{[(2S)-2-hydroxy-3-methylbutanoyl]amino}pentanamide] | 130.7
CCC[C@H](NC(=O)[C@@H](O)C(C)C)C(=O)Nc1ncc(-c2ccc(C)cc2COc2ccccc2)s1 [compound 65, (2S)-2-{[(2S)-2-hydroxy-3-methylbutanoyl]amino}-N-{5-[4-methyl-2-(phenoxymethyl)phenyl]-1,3-thiazol-2-yl}pentanamide] | 135.5
C[C@H](NC(=O)[C@@H](O)C(C)(C)C)C(=O)Nc1ncc(-c2ccccc2COC2CCCCC2)s1 [compound 66, (2S)—N-{(1S)-2-[(5-{2-[(cyclohexyloxy)methyl]phenyl}-1,3-thiazol-2-yl)amino]-1-methyl-2-oxoethyl}-2-hydroxy-3,3-dimethylbutanamide] | 104.8

Continued, values first:

melting point [°C] | SMILES
126 | CCC[C@H](NC(=O)C(O)C(C)(C)C)C(=O)Nc1ncc(-c2ccccc2COc2c(Cl)cccc2Cl)s1 (stereo partly drawn) [compound 41, (2S)—N-(5-{2-[(2,6-dichlorophenoxy)methyl]phenyl}-1,3-thiazol-2-yl)-2-[(2-hydroxy-3,3-dimethylbutanoyl)amino]pentanamide]
63.5 | CCC[C@H](NC(=O)[C@@H](O)C(C)(C)C)C(=O)Nc1ncc(-c2ccccc2COc2c(F)cccc2F)s1 [compound 46, (2S)—N-(5-{2-[(2,6-difluorophenoxy)methyl]phenyl}-1,3-thiazol-2-yl)-2-{[(2S)-2-hydroxy-3,3-dimethylbutanoyl]amino}pentanamide]
93.5 | CCC[C@H](NC(=O)[C@@H](O)C(C)(C)C)C(=O)Nc1ncc(-c2ccc(Cl)cc2COc2ccccc2)s1 [compound 47, (2S)—N-{5-[4-chloro-2-(phenoxymethyl)phenyl]-1,3-thiazol-2-yl}-2-{[(2S)-2-hydroxy-3,3-dimethylbutanoyl]amino}pentanamide]
75.5 | CCC[C@H](NC(=O)[C@@H](O)C(C)(C)C)C(=O)Nc1ncc(-c2ccc(F)cc2COc2ccccc2)s1 [compound 48, (2S)—N-{5-[4-fluoro-2-(phenoxymethyl)phenyl]-1,3-thiazol-2-yl}-2-{[(2S)-2-hydroxy-3,3-dimethylbutanoyl]amino}pentanamide]
105.4 | CCC[C@H](NC(=O)[C@@H](O)C(C)(C)C)C(=O)Nc1ncc(-c2cc(F)ccc2COc2ccccc2)s1 [compound 54, (2S)—N-{5-[5-fluoro-2-(phenoxymethyl)phenyl]-1,3-thiazol-2-yl}-2-{[(2S)-2-hydroxy-3,3-dimethylbutanoyl]amino}pentanamide]
120.7 | CCC[C@H](NC(=O)[C@@H](O)C(C)(C)C)C(=O)Nc1ncc(-c2cc(Cl)ccc2COc2ccccc2)s1 [compound 55, (2S)—N-{5-[5-chloro-2-(phenoxymethyl)phenyl]-1,3-thiazol-2-yl}-2-{[(2S)-2-hydroxy-3,3-dimethylbutanoyl]amino}pentanamide]
92.6 | CCC[C@H](NC(=O)[C@@H](O)C(C)(C)C)C(=O)Nc1ncc(-c2ccc(C)cc2COc2ccccc2)s1 [compound 59, (2S)-2-{[(2S)-2-hydroxy-3,3-dimethylbutanoyl]amino}-N-{5-[4methyl-2-(phenoxymethyl)phenyl]-1,3-thiazol-2-yl}pentanamide]
162.6 | CCC[C@H](NC(=O)[C@@H](O)C(C)(C)C)C(=O)Nc1ncc(-c2ccccc2COc2cccc(C#N)c2)s1 [compound 61, (2S)—N-(5-{2-[(3-cyanophenoxy)methyl]phenyl}-1,3-thiazol-2-yl)-2-{[(2S)-2-hydroxy-3,3-dimethylbutanoyl]amino}pentanamide]
160.2 | CCC[C@H](NC(=O)[C@@H](O)C(C)(C)C)C(=O)Nc1ncc(-c2ccccc2COc2cccc(F)c2)s1 [compound 62, (2S)—N-(5-{2-[(3-fluorophenoxy)methyl]phenyl}-1,3-thiazol-2-yl)-2-{[(2S)-2-hydroxy-3,3-dimethylbutanoyl]amino}pentanamide]
170 | CCC[C@H](NC(=O)[C@@H](O)C(C)(C)C)C(=O)Nc1ncc(-c2cc(C)ccc2COc2ccccc2)s1 [compound 64, (2S)-2-{[(2S)-2-hydroxy-3,3-dimethylbutanoyl]amino}-N-{5-[5-methyl-2-(phenoxymethyl)phenyl]-1,3-thiazol-2-yl}pentanamide]
82 | CCC[C@H](NC(=O)[C@@H](O)C(C)(C)C)C(=O)Nc1ncc(-c2ccccc2COc2cc(C)ccc2Cl)s1 [compound 67, (2S)—N-(5-{2-[(2-chloro-5-methylphenoxy)methyl]phenyl}-1,3-thiazol-2-yl)-2-{[(2S)-2-hydroxy-3,3-dimethylbutanoyl]amino}pentanamide]
80.6 | CCC[C@H](NC(=O)[C@@H](O)C(C)(C)C)C(=O)Nc1ncc(-c2ccccc2COc2cccc(C)c2)s1 [compound 68, (2S)-2-{[(2S)-2-hydroxy-3,3-dimethylbutanoyl]amino}-N-(5-{2-[(3-methylphenoxy)methyl]phenyl}-1,3-thiazol-2-yl)pentanamide]
99 | CCC[C@H](NC(=O)[C@@H](O)C(C)(C)C)C(=O)Nc1ncc(-c2ccccc2COc2ccccc2C#N)s1 [compound 69, (2S)—N-(5-{2-[(2-cyanophenoxy)methyl]phenyl}-1,3-thiazol-2-yl)-2-{[(2S)-2-hydroxy-3,3-dimethylbutanoyl]amino}pentanamide]
85 | CCC[C@H](NC(=O)[C@@H](O)C(C)(C)C)C(=O)Nc1ncc(-c2ccccc2COc2cc(C)c(C)cc2Cl)s1 [compound 71, (2S)—N-(5-{2-[(2-chloro-4,5-dimethylphenoxy)methyl]phenyl}-1,3-thiazol-2-yl)-2-{[(2S)-2-hydroxy-3,3-dimethylbutanoyl]amino}pentanamide]
83.4 | CCC[C@H](NC(=O)[C@@H](O)C(C)(C)C)C(=O)Nc1ncc(-c2ccccc2COc2ccc(Cl)c(C)c2)s1 [compound 72, (2S)—N-(5-{2-[(4-chloro-3-methylphenoxy)methyl]phenyl}-1,3-thiazol-2-yl)-2-{[(2S)-2-hydroxy-3,3-dimethylbutanoyl]amino}pentanamide]
71.1 | CCC[C@H](NC(=O)[C@@H](O)C(C)(C)C)C(=O)Nc1ncc(-c2ccccc2COc2cccc(Cl)c2Cl)s1 [compound 73, (2S)—N-(5-{2-[(2,3-dichlorophenoxy)methyl]phenyl}-1,3-thiazol-2-yl)-2-{[(2S)-2-hydroxy-3,3-dimethylbutanoyl]amino}pentanamide]
82 | CCC[C@H](NC(=O)[C@@H](O)C(C)(C)C)C(=O)Nc1ncc(-c2ccccc2COc2cccc(F)c2F)s1 [compound 74, (2S)—N-(5-{2-[(2,3-difluorophenoxy)methyl]phenyl}-1,3-thiazol-2-yl)-2-{[(2S)-2-hydroxy-3,3-dimethylbutanoyl]amino}pentanamide]
